{"source": "patent US20240150377A1", "about": "“MODULATORS OF CYSTIC FIBROSIS TRANSMEMBRANE CONDUCTANCE REGULATOR” (VERTEX PHARMACEUTICALS INCORPORATED, priority 2020, published 2024)", "data": [{"biological_target": "T1, CFTR (Homo sapiens, UniProt P13569, DEL508-508)", "T1 construct": "endogenous in cells; host or cells: primary human bronchial epithelial cells from CF subjects (F508del/MF-HBE), differentiated at air-liquid interface", "T1 sequence (P13569 with tags, fused parts or gaps DEL508-508)": "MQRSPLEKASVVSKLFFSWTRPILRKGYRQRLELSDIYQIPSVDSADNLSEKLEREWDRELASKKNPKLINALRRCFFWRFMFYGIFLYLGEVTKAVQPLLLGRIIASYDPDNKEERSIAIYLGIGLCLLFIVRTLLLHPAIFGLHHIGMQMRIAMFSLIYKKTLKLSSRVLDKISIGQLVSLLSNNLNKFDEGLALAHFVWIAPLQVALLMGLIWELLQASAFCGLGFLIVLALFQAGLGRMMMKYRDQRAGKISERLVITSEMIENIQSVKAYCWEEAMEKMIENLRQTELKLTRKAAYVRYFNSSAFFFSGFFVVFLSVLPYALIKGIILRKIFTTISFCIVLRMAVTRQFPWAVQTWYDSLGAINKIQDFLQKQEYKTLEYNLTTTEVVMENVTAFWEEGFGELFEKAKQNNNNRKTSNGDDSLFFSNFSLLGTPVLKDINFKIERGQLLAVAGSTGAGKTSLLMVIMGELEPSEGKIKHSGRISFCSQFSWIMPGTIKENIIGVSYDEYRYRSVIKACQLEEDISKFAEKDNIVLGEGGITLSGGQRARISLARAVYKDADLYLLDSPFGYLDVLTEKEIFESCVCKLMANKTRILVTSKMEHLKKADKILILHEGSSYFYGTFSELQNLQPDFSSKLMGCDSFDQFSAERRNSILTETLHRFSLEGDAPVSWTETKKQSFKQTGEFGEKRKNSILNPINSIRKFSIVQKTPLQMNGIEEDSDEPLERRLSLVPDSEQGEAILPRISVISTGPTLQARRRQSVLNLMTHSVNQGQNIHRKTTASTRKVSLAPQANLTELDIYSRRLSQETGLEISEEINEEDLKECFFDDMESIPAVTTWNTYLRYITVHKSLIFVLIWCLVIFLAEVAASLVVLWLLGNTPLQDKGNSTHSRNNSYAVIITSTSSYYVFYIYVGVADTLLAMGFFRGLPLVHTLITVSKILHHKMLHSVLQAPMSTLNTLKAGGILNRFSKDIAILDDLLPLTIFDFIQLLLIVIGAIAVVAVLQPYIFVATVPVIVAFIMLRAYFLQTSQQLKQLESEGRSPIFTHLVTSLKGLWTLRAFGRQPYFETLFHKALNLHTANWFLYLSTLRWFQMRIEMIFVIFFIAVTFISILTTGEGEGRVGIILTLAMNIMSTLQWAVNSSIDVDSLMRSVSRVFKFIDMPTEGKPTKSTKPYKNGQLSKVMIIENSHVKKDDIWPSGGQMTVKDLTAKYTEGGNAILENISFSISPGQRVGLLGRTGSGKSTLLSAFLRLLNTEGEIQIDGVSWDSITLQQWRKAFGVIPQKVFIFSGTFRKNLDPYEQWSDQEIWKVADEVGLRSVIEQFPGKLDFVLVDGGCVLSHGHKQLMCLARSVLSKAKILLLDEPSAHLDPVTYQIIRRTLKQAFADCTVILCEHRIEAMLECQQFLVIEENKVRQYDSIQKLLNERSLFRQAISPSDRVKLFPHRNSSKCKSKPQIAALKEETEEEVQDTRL", "assay": "HBE2 assay: Ussing chamber assay of CFTR-mediated short-circuit currents", "format": "cell-based", "conditions": "3 μM corrector; F508del/MF-HBE cells; with 44 nM potentiator, 18-24 hours, 20% human serum", "in_short": "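Corrector activity read as CFTR-dependent ISC (μA/cm^2): peak forskolin current minus post-inhibitor steady state. Measured at 37 °C, voltage clamp at 0 mV, on F508del/MF-HBE epithelia grown >14 days air-liquid interface in Ussing chambers.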", "values": [{"smiles": "Cc1cccc(C)c1-c1cc2nc(n1)NS(=O)(=O)c1cccc(c1)C(=O)N(Cc1cncc(N3CCCC[C@H]3C)n1)[C@H](CC1CC(C)(C)C1)CO2", "note": "[Compound 1901]", "HBE2 Activity at 3 μM (%)": "+++ (+++ is >60+)"}, {"smiles": "Cc1cccc(C)c1-c1cc2nc(n1)NS(=O)(=O)c1cccc(c1)C(=O)N(Cc1cncc(N(C)CC(C)C)n1)[C@H](COC1CC1)CO2", "note": "[Compound 1903]", "HBE2 Activity at 3 μM (%)": "+++ (+++ is >60+)"}, {"smiles": "Cc1cccc(C)c1-c1cc2nc(n1)NS(=O)(=O)c1cccc(c1)C(=O)N(Cc1cncc(N(C)C3CC4(CC4)C3)n1)[C@H](COC1CC1)CO2", "note": "[Compound 1904]", "HBE2 Activity at 3 μM (%)": "+++ (+++ is >60+)"}, {"smiles": "Cc1cccc(C)c1-c1cc2nc(n1)NS(=O)(=O)c1cccc(c1)C(=O)N(Cc1cncc(N(C)C3CC(F)(F)C3)n1)[C@H](COC1CC1)CO2", "note": "[Compound 1905]", "HBE2 Activity at 3 μM (%)": "+++ (+++ is >60+)"}, {"smiles": "Cc1cccc(C)c1-c1cc2nc(n1)NS(=O)(=O)c1cccc(c1)C(=O)N(Cc1cncc(N(C)[C@H]3C[C@@H](F)C3)n1)[C@H](COC1CC1)CO2", "note": "[Compound 1906]", "HBE2 Activity at 3 μM (%)": "+++ (+++ is >60+)"}, {"smiles": "Cc1cccc(C)c1-c1cc2nc(n1)NS(=O)(=O)c1cccc(c1)C(=O)N(Cc1cncc(N(C)[C@H]3C[C@H](F)C3)n1)[C@H](COC1CC1)CO2", "note": "[Compound 1907]", "HBE2 Activity at 3 μM (%)": "+++ (+++ is >60+)"}, {"smiles": "Cc1cccc(C)c1-c1cc2nc(n1)NS(=O)(=O)c1cccc(c1)C(=O)N(Cc1cncc(N3CCCC[C@H]3C)n1)[C@H](COC1CC1)CO2", "note": "[Compound 1908]", "HBE2 Activity at 3 μM (%)": "+++ (+++ is >60+)"}, {"smiles": "CCn1c(C)cc2ncc(CN3C(=O)c4cccc(c4)S(=O)(=O)Nc4nc(cc(-c5c(C)cccc5C)n4)OC[C@H]3CC(C)(C)C)nc21", "note": "[Compound 1910]", "HBE2 Activity at 3 μM (%)": "+++ (+++ is >60+)"}, {"smiles": "CCc1cc2ncc(CN3C(=O)c4cccc(c4)S(=O)(=O)Nc4nc(cc(-c5c(C)cccc5C)n4)OC[C@H]3CC(C)(C)C)nc2n1C", "note": "[Compound 1911]", "HBE2 Activity at 3 μM (%)": "+++ (+++ is >60+)"}, {"smiles": "Cc1cccc(C)c1-c1cc2nc(n1)NS(=O)(=O)c1cccc(c1)C(=O)N(Cc1cncc(N(C)[C@H]3C[C@H](F)C3)n1)[C@H](CCC(C)C)CO2", "note": "[Compound 1914]", "HBE2 Activity at 3 μM (%)": "+++ (+++ is >60+)"}, {"smiles": "Cc1cccc(C)c1-c1cc2nc(n1)NS(=O)(=O)c1cccc(c1)C(=O)N(Cc1cncc(N(C)[C@H]3C[C@@H](F)C3)n1)[C@H](CCC1CC1)CO2", "note": "[Compound 1915]", "HBE2 Activity at 3 μM (%)": "+++ (+++ is >60+)"}, {"smiles": "Cc1cccc(C)c1-c1cc2nc(n1)NS(=O)(=O)c1cccc(c1)C(=O)N(Cc1cncc(N(C)[C@H]3C[C@H](F)C3)n1)[C@H](CCC1CC1)CO2", "note": "[Compound 1916]", "HBE2 Activity at 3 μM (%)": "+++ (+++ is >60+)"}, {"smiles": "Cc1cccc(C)c1-c1cc2nc(n1)NS(=O)(=O)c1cccc(c1)C(=O)N(Cc1cncc(N3[C@H](C)CC[C@@H]3C)n1)[C@H](CCC(C)(C)C)CO2", "note": "[Compound 1917]", "HBE2 Activity at 3 μM (%)": "+++ (+++ is >60+)"}, {"smiles": "Cc1cccc(C)c1-c1cc2nc(n1)NS(=O)(=O)c1cccc(c1)C(=O)N(Cc1cncc(N3CC[C@H]3C)n1)[C@H](COC1CC1)CO2", "note": "[Compound 1918]", "HBE2 Activity at 3 μM (%)": "+++ (+++ is >60+)"}, {"smiles": "Cc1cccc(C)c1-c1cc2nc(n1)NS(=O)(=O)c1cccc(c1)C(=O)N(Cc1cnc3cc(C(C)C)n(C)c3n1)[C@H](COC(C)C)CO2", "note": "[Compound 1919]", "HBE2 Activity at 3 μM (%)": "+++ (+++ is >60+)"}, {"smiles": "Cc1cccc(C)c1-c1cc2nc(n1)NS(=O)(=O)c1cccc(c1)C(=O)N(Cc1cncc(N3CC[C@@H]4CC[C@@H]43)n1)[C@H](CCC1CC1)CO2", "note": "[Compound 1922]", "HBE2 Activity at 3 μM (%)": "+++ (+++ is >60+)"}, {"smiles": "Cc1cccc(C)c1-c1cc2nc(n1)NS(=O)(=O)c1cccc(n1)C(=O)N(Cc1cncc(N(C)C3CCC3)c1)[C@H](CC(C)(C)C)CO2", "note": "[Compound 1924]", "HBE2 Activity at 3 μM (%)": "+++ (+++ is >60+)"}, {"smiles": "CCN(c1cncc(CN2C(=O)c3cccc(c3)S(=O)(=O)Nc3nc(cc(-c4c(C)cccc4C)n3)OC[C@H]2COC2CC2)n1)C1CCC1", "note": "[Compound 1925]", "HBE2 Activity at 3 μM (%)": "+++ (+++ is >60+)"}, {"smiles": "Cc1cccc(C)c1-c1cc2nc(n1)NS(=O)(=O)c1cccc(c1)C(=O)N(Cc1cncc(N3CC[C@H]3C)n1)[C@H](COC(C)C)CO2", "note": "[Compound 1926]", "HBE2 Activity at 3 μM (%)": "+++ (+++ is >60+)"}, {"smiles": "Cc1cccc(C)c1-c1cc2nc(n1)NS(=O)(=O)c1cccc(c1)C(=O)N(Cc1cncc(N(C)C3CCC3)c1)[C@H](CC(C)(C)C)CO2", "note": "[Compound 1927]", "HBE2 Activity at 3 μM (%)": "+++ (+++ is >60+)"}, {"smiles": "Cc1cccc(C)c1-c1cc2nc(n1)NS(=O)(=O)c1cccc(c1)C(=O)N(Cc1cc(N)cc(N(C)C3CCC3)n1)[C@H](CC(C)(C)C)CO2", "note": "[Compound 1928]", "HBE2 Activity at 3 μM (%)": "+++ (+++ is >60+)"}, {"smiles": "Cc1cccc(C)c1-c1cc2nc(n1)NS(=O)(=O)c1cccc(c1)C(=O)N(Cc1cc(NC(=O)OC(C)(C)C)cc(N(C)C3CCC3)n1)[C@H](CC(C)(C)C)CO2", "note": "[Compound 1929]", "HBE2 Activity at 3 μM (%)": "+++ (+++ is >60+)"}, {"smiles": "Cc1cccc(C)c1-c1cc2nc(n1)NS(=O)(=O)c1cccc(c1)C(=O)N(Cc1ccc3nc(C(C)C)n(C)c3n1)[C@H](COC(C)C)CO2", "note": "[Compound 1930]", "HBE2 Activity at 3 μM (%)": "+++ (+++ is >60+)"}, {"smiles": "Cc1cccc(C)c1-c1cc2nc(n1)NS(=O)(=O)c1cccc(c1)C(=O)N(Cc1cnc3cc(C(C)C)n(C)c3n1)[C@H](C[C@H]1CCCOC1)CO2", "note": "[Compound 1931]", "HBE2 Activity at 3 μM (%)": "+++ (+++ is >60+)"}, {"smiles": "CCn1c(C(C)C)cc2ncc(CN3C(=O)c4cccc(c4)S(=O)(=O)Nc4nc(cc(-c5c(C)cccc5C)n4)OC[C@H]3COC(C)C)nc21", "note": "[Compound 1933]", "HBE2 Activity at 3 μM (%)": "+++ (+++ is >60+)"}, {"smiles": "Cc1cccc(C)c1-c1cc2nc(n1)NS(=O)(=O)c1cccc(c1)C(=O)N(Cc1cnc3cc(C(C)C)n(C)c3n1)[C@H](CC1CCCCC1)CO2", "note": "[Compound 1934]", "HBE2 Activity at 3 μM (%)": "+++ (+++ is >60+)"}, {"smiles": "CO[C@H](C)[C@@H]1CCCN1c1cncc(CN2C(=O)c3cccc(c3)S(=O)(=O)Nc3nc(cc(-c4c(C)cccc4C)n3)OC[C@H]2CCC(C)(C)C)n1", "note": "[Compound 1935]", "HBE2 Activity at 3 μM (%)": "+++ (+++ is >60+)"}, {"smiles": "CO[C@@H](C)[C@@H]1CCCN1c1cncc(CN2C(=O)c3cccc(c3)S(=O)(=O)Nc3nc(cc(-c4c(C)cccc4C)n3)OC[C@H]2CCC(C)(C)C)n1", "note": "[Compound 1936]", "HBE2 Activity at 3 μM (%)": "+++ (+++ is >60+)"}, {"smiles": "Cc1cccc(C)c1-c1cc2nc(n1)NS(=O)(=O)c1cccc(c1)C(=O)N(Cc1cncc(N3CCC[C@H]3C)n1)[C@H](COC(C)C)CO2", "note": "[Compound 1937]", "HBE2 Activity at 3 μM (%)": "+++ (+++ is >60+)"}, {"smiles": "Cc1cccc(C)c1-c1cc2nc(n1)NS(=O)(=O)c1cc(n(C)n1)C(=O)N(Cc1cncc(N(C)C3CCC3)n1)[C@H](CC(C)(C)C)CO2", "note": "[Compound 1944]", "HBE2 Activity at 3 μM (%)": "+++ (+++ is >60+)"}, {"smiles": "Cc1cccc(C)c1-c1cc2nc(n1)NS(=O)(=O)c1cc(n(C)n1)C(=O)N(Cc1cncc(N3CCC[C@H]3C)n1)[C@H](CC(C)(C)C)CO2", "note": "[Compound 1945]", "HBE2 Activity at 3 μM (%)": "+++ (+++ is >60+)"}, {"smiles": "Cc1cccc(C)c1-c1cc2nc(n1)NS(=O)(=O)c1cccc(c1)C(=O)N(Cc1cncc(N(C)C3CC(F)(F)C3)n1)[C@H](COC(C)C)CO2", "note": "[Compound 1946]", "HBE2 Activity at 3 μM (%)": "+++ (+++ is >60+)"}, {"smiles": "Cc1cccc(C)c1-c1cc2nc(n1)NS(=O)(=O)c1cccc(c1)C(=O)N(Cc1cncc(N3[C@H](C)CC[C@H]3C)n1)[C@H](CCC(C)(C)C)CO2", "note": "[Compound 1947]", "HBE2 Activity at 3 μM (%)": "+++ (+++ is >60+)"}, {"smiles": "Cc1cccc(C)c1-c1cc2nc(n1)NS(=O)(=O)c1cccc(c1)C(=O)N(Cc1cncc(N(C)C3CCCC3)n1)[C@H](COC(C)C)CO2", "note": "[Compound 1948]", "HBE2 Activity at 3 μM (%)": "+++ (+++ is >60+)"}, {"smiles": "Cc1cccc(C)c1-c1cc2nc(n1)NS(=O)(=O)c1cccc(c1)C(=O)N(Cc1cncc(N(C)C3CC4(CC4)C3)n1)[C@H](COC(C)C)CO2", "note": "[Compound 1949]", "HBE2 Activity at 3 μM (%)": "+++ (+++ is >60+)"}, {"smiles": "Cc1cccc(C)c1-c1cc2nc(n1)NS(=O)(=O)c1cccc(c1)C(=O)N(Cc1cncc(N3[C@H](C)CC[C@@H]3C)n1)[C@H](COC(C)C)CO2", "note": "[Compound 1950]", "HBE2 Activity at 3 μM (%)": "+++ (+++ is >60+)"}, {"smiles": "Cc1cccc(C)c1-c1cc2nc(n1)NS(=O)(=O)c1cccc(c1)C(=O)N(Cc1ncc(OC3CCC3)cc1F)[C@H](COC(C)C)CO2", "note": "[Compound 1953]", "HBE2 Activity at 3 μM (%)": "+++ (+++ is >60+)"}, {"smiles": "Cc1cccc(C)c1-c1cc2nc(n1)NS(=O)(=O)c1cccc(c1)C(=O)N(Cc1cccc(N3CCC[C@H]3C)n1)[C@H](COC(C)C)CO2", "note": "[Compound 1954]", "HBE2 Activity at 3 μM (%)": "+++ (+++ is >60+)"}, {"smiles": "Cc1cccc(C)c1-c1cc2nc(n1)NS(=O)(=O)c1cccc(c1)C(=O)N(Cc1ncc(N3CCC(C)(C)C3)cn1)[C@H](COC(C)C)CO2", "note": "[Compound 1955]", "HBE2 Activity at 3 μM (%)": "+++ (+++ is >60+)"}, {"smiles": "Cc1cccc(C)c1-c1cc2nc(n1)NS(=O)(=O)c1cccc(c1)C(=O)N(Cc1ncc(OC3CCC3)cn1)[C@H](COC(C)C)CO2", "note": "[Compound 1956]", "HBE2 Activity at 3 μM (%)": "+++ (+++ is >60+)"}, {"smiles": "Cc1cccc(C)c1-c1cc2nc(n1)NS(=O)(=O)c1cccc(c1)C(=O)N(Cc1ncc(OC(C)C)cn1)[C@H](COC(C)C)CO2", "note": "[Compound 1957]", "HBE2 Activity at 3 μM (%)": "+++ (+++ is >60+)"}]}]}
